According to patent EP4570793A1, “5-HT2A RECEPTOR INVERSE AGONIST, AND PREPARATION METHOD THEREFOR AND USE THEREOF” (Luye Innomind Pharma Shijiazhuang Co., Ltd., priority 2022, dated 2024):
Where two headings read alike, the source gives them in different places.

How the values were obtained:
[1] = In-vitro liver microsomal stability (human); assay type: in vitro ADME; conditions: Human liver microsomes, 1 µM, 0.5 mg/mL, NADPH
Experimental: (§1) Test Example 3. Evaluation of In-Vitro Liver Microsomal Stability
(§2) • 1) Preparation of test sample working solution: A test sample was diluted to 100 µM with methanol. • 2) Preparation of liver microsome working solution: Liver microsomes were diluted to 0.56 mg/mL with 100 mM phosphate-buffered saline. • 3) Preparation of working solution of reduced nicotinamide adenine dinucleotide phosphate (NADPH): A proper amount of NADPH was weighed out and diluted to 20 mM with phosphate-buffered saline, and then an equal volume of a 60 mM MgCl2 solution was added. • 4) Preparation of stop solution: Tolbutamide was diluted to 20 ng/mL with acetonitrile to serve as a stop solution containing an internal standard.
(§3) • 1) Anti-adsorption EP tubes for incubation were prepared and labeled with species, test samples, control samples (testosterone and dextromethorphan), time points (0 min, 5 min, 10 min, 20 min, 30 min, 60 min, Blank60, and NCF60), etc. • 2) 2 µL of test or control sample working solution and 178 µL of liver microsome working solution were added to each tube. For the Blank tube, 2 µL of acetonitrile was added instead of the test sample. The tubes were preincubated in a water bath at 37 °C for about 10 min, with 3 replicates set up for each sample. • 3) After the pre-incubation was completed, 20 µL of NADPH working solution was added to each tube except for the 0 min and NCF60 tubes to start the reaction. For the NCF60 tube, 20 µL of phosphate-buffered saline (containing 30 mM MgCl2) was added. In the incubation system, the final concentration of the test or control sample was 1 µM, the final concentration of liver microsomes was 0.5 mg/mL, the final concentration of NADPH was 1 mM, and the final concentration of MgCl2 was 3 mM. • 4) For the 0 min sample, 600 µL of stop solution was added, followed by the addition of the NADPH working solution. For the other samples, after each of them was incubated for the corresponding time, 600 µL of stop solution was added to stop the reaction. • 5) After the reaction was stopped, each sample was vortexed for 30 s and then centrifuged at 13500 rpm for 10 min. Then, 100 µL of the supernatant was transferred to an EP tube, and 100 µL of Milli-Q water was added. The mixture was well mixed by vortexing and analyzed by LC-MS/MS. • 6) Testosterone and dextromethorphan were used as positive control samples under the same conditions to assess the stability and reliability of the system.
(§4) Table 2: Test data for the compounds of the present disclosure in human and rat liver microsomes

[2] = In-vitro liver microsomal stability (rat); assay type: in vitro ADME; conditions: Rat liver microsomes, 1 µM, 0.5 mg/mL, NADPH
Experimental: as §1, §2, §3, §4

hERG potassium channels = hERG potassium channels (Homo sapiens, UniProt Q12809); assay: cell-based
Experimental: • Species & strain: CHO-hERG cell line (Chinese hamster ovary cells stably expressing hERG channels) • Culture medium: 90% F12, 10% fetal bovine serum, 100 µg/mL G418, and 100 µg/mL Hygromycin B • Culture conditions: incubator at 37 °C with 5% CO2 • Cryopreservation condition: liquid nitrogen
On the day of the test, the compound was diluted with DMSO to an intermediate concentration. Then, 10 µL of the intermediate-concentration compound was transferred to 4990 µL of extracellular fluid, achieving a 500-fold dilution to obtain the final concentration to be tested.
hERG potassium channel currents were recorded at room temperature by the whole-cell patch clamp technique in the CHO (Chinese hamster ovary) cells stably expressing hERG potassium channels. Glass microelectrodes were formed by pulling a glass electrode blank (BF150-86-10, Sutter) using a puller. The tip resistance after perfusion of electrode internal solution was about 2-5 MΩ. The glass microelectrodes could be connected to a patch clamp amplifier after being inserted into amplifier probes. The clamping voltage and data recording were controlled and recorded by a computer with a pClamp 10 software, with a sampling frequency of 10 kHz and a filtering frequency of 2 kHz. After achieving the whole-cell recording, the cells were clamped at -80 mV. The step voltage evoking hERG potassium current (IhERG) was changed from -80 mV to +20 mV by applying a 2 s depolarization voltage, followed by repolarization to -50 mV for 1 s, and then returned to -80 mV. This voltage stimulation was applied every 10 s, and after it was determined that the hERG potassium currents were stable (1 min), the administration process was started. Each test concentration of the compound was applied for at least 1 min, and at least 2 cells (n ≥ 2) were tested for each concentration.

5-HT2A receptor = 5-HT2A receptor (Homo sapiens, UniProt P28223); assay: Assay for 5-HT2A receptor inverse agonist activity (NIH3T3-5-HT2A R cells, Bright-Glo luciferase, cell inhibition rate)
Experimental: Assay for 5-HT2A Receptor Inverse Agonist Activity
• Cell line: adherent cells NIH3T3-5-HT2A R • Cell culture medium: DMEM + 10% FBS (purchased from GBICO) • Cell culture plate: 96-well white/clear bottom plate (purchased from Perkin Elmer) • Detection kit: Bright-Glo™ Luciferase (purchased from Promega) • Detection instrument: BioTek multimode microplate reader
NIH3T3-5HT2A R cells in the logarithmic growth phase were seeded into a 96-well white/clear bottom plate at a density of 1000 cells/well and then cultured overnight in an incubator at 37 °C with 5% CO2. […] Duplicate wells were set up for each concentration. […] After the drug addition, the cells were cultured in the incubator at 37 °C with 5% CO2 for another 120 h. On the sixth day, a Bright-Glo™ Luciferase reagent was added to the cells in a volume equal to that of the cell culture medium. The plate was then incubated in the dark at room temperature for 20 min, with the plate shaker vibrating once every 5 min. The luminescence intensity was detected using a microplate reader, and the cell inhibition rate was calculated. Data were processed using GraphPad Prism 7.0 to obtain the cell inhibition rate curve and calculate IC50.

[3] = In-vitro liver microsomal stability (dog); assay type: in vitro ADME; conditions: Dog liver microsomes, 1 µM, 0.5 mg/mL, NADPH
Experimental: as §1, §2
as §3, with “system. […]” for “system.”

[4] = 5-HT2A inverse agonist activity IC50 (nM), NIH3T3-5HT2A R cells, 120 h, luminescence

Chain of 5-HT2A receptor (P28223 whole entry): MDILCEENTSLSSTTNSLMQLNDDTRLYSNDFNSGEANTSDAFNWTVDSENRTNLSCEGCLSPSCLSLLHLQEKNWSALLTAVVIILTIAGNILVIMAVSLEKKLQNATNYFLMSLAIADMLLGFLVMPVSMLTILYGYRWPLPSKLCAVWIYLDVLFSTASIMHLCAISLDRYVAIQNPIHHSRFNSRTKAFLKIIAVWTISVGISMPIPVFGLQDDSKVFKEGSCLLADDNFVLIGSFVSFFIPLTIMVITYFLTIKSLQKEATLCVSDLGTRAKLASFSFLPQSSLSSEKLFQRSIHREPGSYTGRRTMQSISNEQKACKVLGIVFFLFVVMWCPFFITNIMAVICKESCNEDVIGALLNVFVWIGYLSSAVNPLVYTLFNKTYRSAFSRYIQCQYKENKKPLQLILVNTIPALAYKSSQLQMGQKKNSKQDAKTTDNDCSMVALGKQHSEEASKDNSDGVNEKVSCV
Chain of hERG potassium channels (Q12809 whole entry): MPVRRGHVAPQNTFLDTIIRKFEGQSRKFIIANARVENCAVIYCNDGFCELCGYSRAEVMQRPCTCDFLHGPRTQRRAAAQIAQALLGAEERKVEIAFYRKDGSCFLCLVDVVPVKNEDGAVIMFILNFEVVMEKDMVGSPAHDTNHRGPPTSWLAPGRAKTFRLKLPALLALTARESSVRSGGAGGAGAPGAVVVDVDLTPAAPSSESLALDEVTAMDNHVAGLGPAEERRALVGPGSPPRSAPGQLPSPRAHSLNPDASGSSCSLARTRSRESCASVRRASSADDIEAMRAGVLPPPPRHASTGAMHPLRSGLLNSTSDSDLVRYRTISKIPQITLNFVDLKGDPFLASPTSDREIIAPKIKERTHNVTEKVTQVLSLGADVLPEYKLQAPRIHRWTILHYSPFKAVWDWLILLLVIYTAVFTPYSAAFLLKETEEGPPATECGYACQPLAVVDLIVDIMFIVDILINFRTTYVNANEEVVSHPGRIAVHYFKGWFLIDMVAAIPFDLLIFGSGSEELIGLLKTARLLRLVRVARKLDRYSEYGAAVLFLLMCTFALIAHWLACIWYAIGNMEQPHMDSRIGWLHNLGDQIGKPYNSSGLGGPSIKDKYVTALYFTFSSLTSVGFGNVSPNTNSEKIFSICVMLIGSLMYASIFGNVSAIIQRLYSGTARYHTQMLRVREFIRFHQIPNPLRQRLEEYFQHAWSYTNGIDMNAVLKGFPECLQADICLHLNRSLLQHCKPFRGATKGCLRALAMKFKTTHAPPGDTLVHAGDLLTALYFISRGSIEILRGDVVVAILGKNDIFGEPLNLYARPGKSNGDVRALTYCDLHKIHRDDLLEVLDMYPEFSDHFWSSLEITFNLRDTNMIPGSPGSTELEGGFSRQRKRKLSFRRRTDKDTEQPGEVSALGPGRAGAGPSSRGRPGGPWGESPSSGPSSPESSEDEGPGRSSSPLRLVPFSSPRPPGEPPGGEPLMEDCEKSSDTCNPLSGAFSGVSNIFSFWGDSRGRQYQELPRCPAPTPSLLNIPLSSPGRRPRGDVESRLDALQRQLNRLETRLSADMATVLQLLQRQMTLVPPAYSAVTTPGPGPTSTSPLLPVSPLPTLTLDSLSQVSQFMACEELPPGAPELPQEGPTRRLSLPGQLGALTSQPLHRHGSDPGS

Remaining amount% at 60 min [1] [%] | Remaining amount% at 60 min [2] [%] | IC50 (5-HT2A receptor) [nM] | Structure (SMILES) | IC50 (hERG potassium channels) [nM] | Remaining amount% at 60 min [3] [%] | IC50 (5-HT2A receptor; [4]) [nM]
77.06 | 69.21 | 163 | CN1CCC(N(Cc2ccc(F)cn2)C(=O)NCc2ccc3c(ccn3C)c2)CC1 [Compound 12] | 2220 | – | –
38.94 | 54.78 | – | CN1CCC(N(Cc2ccc(F)cn2)C(=O)NCc2cnc(OCC(F)(F)F)c(Br)c2)CC1 [Compound 28] | > 30000 | – | –
50.93 | 63.98 | – | CN1CCC(N(Cc2ccc(F)cn2)C(=O)NCc2cnc(OCC(F)(F)F)c(Cl)c2)CC1 [Compound 27] | > 30000 | – | –

Further lines, the molecule ahead of its results:

Structure (SMILES) | Remaining amount% at 60 min [1] [%] | Remaining amount% at 60 min [2] [%] | IC50 (5-HT2A receptor) [nM] | IC50 (hERG potassium channels) [nM] | Remaining amount% at 60 min [3] [%] | IC50 (5-HT2A receptor; [4]) [nM]
CN1CCC(N(Cc2ccc(F)cn2)C(=O)NCc2ccc3[nH]ccc3c2)CC1 [Compound 9] | 93.1 | – | – | 3120 | 45.3 | 28.2
CN1CC[C@H](N(Cc2ccc(F)cn2)C(=O)NCc2ccc(OCC(F)(F)F)nc2)[C@@H](F)C1 [Compound 66] | 73.7 | – | 22.7 | 2990 | 85.1 | –
CN1CCC(N(Cc2ccc(F)cn2)C(=O)NCc2ccc(OCC(F)(F)F)cn2)CC1 [Compound 1] | 85.7 | – | – | 4930 | 88.7 | 152
CN1CCC(N(Cc2ccc(F)cn2)C(=O)NCc2ccc(OCC(F)(F)F)nc2)C2(CC2)C1 (single isomer, unassigned) [Compound 50A] | 89.7 | 58.8 | – | 2200 | – | 2.6
